Data: ChEMBL document CHEMBL4325871 (Eur J Med Chem, 2019)
Active and inactive are the calls of the source. The calls are words filed in the database; no cut-off is given here.

Legend:
[1] = target: T1, Serine/threonine-protein kinase Chk1 (Homo sapiens) (UniProt O14757); test: Inhibition of CHK1 phosphorylation at S296 residue in human HCT116 cells at 20 uM after 8 hrs by Western blot analysis; format: cell-based
T1 sequence (whole entry): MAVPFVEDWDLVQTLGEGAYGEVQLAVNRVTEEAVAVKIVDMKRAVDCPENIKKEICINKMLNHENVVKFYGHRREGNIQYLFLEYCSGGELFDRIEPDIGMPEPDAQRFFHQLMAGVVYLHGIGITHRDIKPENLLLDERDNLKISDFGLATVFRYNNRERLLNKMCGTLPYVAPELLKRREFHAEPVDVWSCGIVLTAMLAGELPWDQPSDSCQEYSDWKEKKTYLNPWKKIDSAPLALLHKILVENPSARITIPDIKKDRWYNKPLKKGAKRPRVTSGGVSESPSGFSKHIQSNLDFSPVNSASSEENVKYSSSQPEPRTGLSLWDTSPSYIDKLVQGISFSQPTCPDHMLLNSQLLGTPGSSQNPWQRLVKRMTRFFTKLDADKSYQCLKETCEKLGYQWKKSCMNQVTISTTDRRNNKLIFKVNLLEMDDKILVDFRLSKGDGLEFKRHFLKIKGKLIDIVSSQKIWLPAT

[2] = target: Tyrosine-protein kinase ABL2 (Homo sapiens) (UniProt P42684); test: Inhibition of human ABL2 assessed as residual activity at 1 uM using EAIYAAPFAKKK as substrate by [gamma-33P]-ATP assay relative to control
[3] = target: CDK18/Cyclin Y (Homo sapiens) (UniProt Q07002+Q8ND76); test: Inhibition of human CDK18/cyclin-Y assessed as residual activity at 1 uM using RB protein as substrate by [gamma-33P]-ATP assay relative to control; format: protein-complex assay
[4] = target: MAP kinase-activated protein kinase 5 (Homo sapiens) (UniProt Q8IW41); test: Inhibition of human MAPKAPK5 assessed as residual activity at 1 uM using KKLNRTLSVA as substrate by [gamma-33P]-ATP assay relative to control
[5] = target: Dual specificity mitogen-activated protein kinase kinase 7 (Homo sapiens) (UniProt O14733); test: Inhibition of human MKK7 assessed as residual activity at 1 uM using JNK as substrate by [gamma-33P]-ATP assay relative to control
[6] = target: Mitogen-activated protein kinase 12 (Homo sapiens) (UniProt P53778); test: Inhibition of human p38gamma assessed as residual activity at 1 uM using MBP as substrate by [gamma-33P]-ATP assay relative to control
[7] = target: Protein kinase C gamma type (Homo sapiens) (UniProt P05129); test: Inhibition of human PKCgamma assessed as residual activity at 1 uM using ERMRPRKRQGSVRRRV as substrate by [gamma-33P]-ATP assay relative to control
[8] = target: Serine/threonine-protein kinase N1 (Homo sapiens) (UniProt Q16512); test: Inhibition of human PKN1 assessed as residual activity at 1 uM using KKLNRTLSVA as substrate by [gamma-33P]-ATP assay relative to control
[9] = target: SNF-related serine/threonine-protein kinase (Homo sapiens) (UniProt Q9NRH2); test: Inhibition of human SNRK assessed as residual activity at 1 uM using MBP as substrate by [gamma-33P]-ATP assay relative to control
[10] = target: Tyrosine-protein kinase TXK (Homo sapiens) (UniProt P42681); test: Inhibition of human TXK assessed as residual activity at 1 uM using EAIYAAPFAKKK as substrate by [gamma-33P]-ATP assay relative to control
Tyrosine-protein kinase TXK (Homo sapiens), sequence (P42681 whole entry): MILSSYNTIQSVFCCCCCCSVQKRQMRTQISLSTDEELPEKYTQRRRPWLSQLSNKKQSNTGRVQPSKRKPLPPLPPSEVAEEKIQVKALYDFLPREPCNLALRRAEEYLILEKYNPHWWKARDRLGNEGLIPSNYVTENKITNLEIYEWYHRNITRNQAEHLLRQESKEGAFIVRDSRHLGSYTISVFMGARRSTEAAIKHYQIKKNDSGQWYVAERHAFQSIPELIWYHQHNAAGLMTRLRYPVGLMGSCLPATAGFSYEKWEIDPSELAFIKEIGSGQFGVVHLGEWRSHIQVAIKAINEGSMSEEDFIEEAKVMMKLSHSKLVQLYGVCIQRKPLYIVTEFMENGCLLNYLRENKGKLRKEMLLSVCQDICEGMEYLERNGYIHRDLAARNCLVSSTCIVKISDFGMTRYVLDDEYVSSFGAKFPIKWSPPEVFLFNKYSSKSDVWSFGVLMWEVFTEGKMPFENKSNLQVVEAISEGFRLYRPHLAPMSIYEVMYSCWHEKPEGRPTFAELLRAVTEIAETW

[11] = target: Calcium/calmodulin-dependent protein kinase kinase 2 (Homo sapiens) (UniProt Q96RR4); test: Inhibition of human CAMKK2 assessed as residual activity at 1 uM using MBP as substrate by [gamma-33P]-ATP assay relative to control
Calcium/calmodulin-dependent protein kinase kinase 2 (Homo sapiens), sequence (Q96RR4 2-588 limits assumed): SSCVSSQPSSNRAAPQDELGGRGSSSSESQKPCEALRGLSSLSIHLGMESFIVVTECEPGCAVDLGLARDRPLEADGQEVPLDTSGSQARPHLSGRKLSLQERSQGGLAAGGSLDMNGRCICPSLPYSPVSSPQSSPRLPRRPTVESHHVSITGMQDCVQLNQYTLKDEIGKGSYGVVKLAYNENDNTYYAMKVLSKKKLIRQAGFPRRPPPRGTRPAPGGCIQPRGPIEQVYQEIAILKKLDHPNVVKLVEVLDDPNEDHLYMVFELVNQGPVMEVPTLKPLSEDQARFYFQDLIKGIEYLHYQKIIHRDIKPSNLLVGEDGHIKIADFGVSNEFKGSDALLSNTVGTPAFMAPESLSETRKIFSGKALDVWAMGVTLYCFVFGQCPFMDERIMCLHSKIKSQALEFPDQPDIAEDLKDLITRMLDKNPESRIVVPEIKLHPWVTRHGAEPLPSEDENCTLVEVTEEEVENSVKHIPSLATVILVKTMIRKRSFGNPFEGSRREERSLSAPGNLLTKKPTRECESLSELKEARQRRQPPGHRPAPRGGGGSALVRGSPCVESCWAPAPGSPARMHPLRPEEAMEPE

[12] = target: Ephrin type-A receptor 6 (Homo sapiens) (UniProt Q9UF33); test: Inhibition of human EPHA6 assessed as residual activity at 1 uM using poly[Glu:Tyr] (4:1) as substrate by [gamma-33P]-ATP assay relative to control
[13] = target: Focal adhesion kinase 1 (Homo sapiens) (UniProt Q05397); test: Inhibition of human FAK assessed as residual activity at 1 uM using poly[Glu:Tyr] (4:1) as substrate by [gamma-33P]-ATP assay relative to control
[14] = target: Tyrosine-protein kinase HCK (Homo sapiens) (UniProt P08631); test: Inhibition of human HCK assessed as residual activity at 1 uM using KVEKIGEGTYGVVYK as substrate by [gamma-33P]-ATP assay relative to control
Tyrosine-protein kinase HCK (Homo sapiens), sequence (P08631 2-526 limits assumed): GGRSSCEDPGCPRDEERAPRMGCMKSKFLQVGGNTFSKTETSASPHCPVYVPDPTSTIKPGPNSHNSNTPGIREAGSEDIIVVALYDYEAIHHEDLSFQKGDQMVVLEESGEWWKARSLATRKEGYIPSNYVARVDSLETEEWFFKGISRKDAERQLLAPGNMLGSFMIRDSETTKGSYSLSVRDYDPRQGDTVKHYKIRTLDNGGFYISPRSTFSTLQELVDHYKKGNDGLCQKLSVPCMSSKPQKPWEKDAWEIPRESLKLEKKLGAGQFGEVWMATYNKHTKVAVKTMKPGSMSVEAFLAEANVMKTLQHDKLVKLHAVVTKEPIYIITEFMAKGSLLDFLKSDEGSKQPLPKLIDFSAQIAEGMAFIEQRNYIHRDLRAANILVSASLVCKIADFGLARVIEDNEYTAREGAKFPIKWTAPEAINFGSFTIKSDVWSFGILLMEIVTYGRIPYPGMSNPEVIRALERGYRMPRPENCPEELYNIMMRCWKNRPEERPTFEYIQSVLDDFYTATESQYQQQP

[15] = target: Inhibitor of nuclear factor kappa-B kinase subunit epsilon (Homo sapiens) (UniProt Q14164); test: Inhibition of human IKKepsilon assessed as residual activity at 1 uM using casein as substrate by [gamma-33P]-ATP assay relative to control
Inhibitor of nuclear factor kappa-B kinase subunit epsilon (Homo sapiens), sequence (Q14164 whole entry): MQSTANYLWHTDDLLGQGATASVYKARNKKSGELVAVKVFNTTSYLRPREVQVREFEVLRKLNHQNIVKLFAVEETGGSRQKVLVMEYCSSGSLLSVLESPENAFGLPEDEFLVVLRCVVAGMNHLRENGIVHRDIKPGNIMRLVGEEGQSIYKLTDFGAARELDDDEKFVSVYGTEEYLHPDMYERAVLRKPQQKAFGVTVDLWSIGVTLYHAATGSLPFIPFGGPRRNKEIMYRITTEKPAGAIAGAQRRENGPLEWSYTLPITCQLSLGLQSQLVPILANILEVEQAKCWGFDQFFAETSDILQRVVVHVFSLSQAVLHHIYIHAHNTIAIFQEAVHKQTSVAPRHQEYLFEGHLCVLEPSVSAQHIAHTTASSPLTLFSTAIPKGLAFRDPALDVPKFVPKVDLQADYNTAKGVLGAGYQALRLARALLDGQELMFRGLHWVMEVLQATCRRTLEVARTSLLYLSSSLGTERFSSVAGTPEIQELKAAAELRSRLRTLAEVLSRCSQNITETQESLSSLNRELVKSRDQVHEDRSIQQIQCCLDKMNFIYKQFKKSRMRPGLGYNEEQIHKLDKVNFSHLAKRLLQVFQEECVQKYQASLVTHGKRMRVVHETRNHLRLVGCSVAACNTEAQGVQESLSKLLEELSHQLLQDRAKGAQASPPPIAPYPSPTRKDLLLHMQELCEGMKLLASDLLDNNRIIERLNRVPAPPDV

[16] = target: Serine/threonine-protein kinase ICK (Homo sapiens) (UniProt Q9UPZ9); test: Inhibition of human LCK2 assessed as residual activity at 1 uM using MBP as substrate by [gamma-33P]-ATP assay relative to control
Serine/threonine-protein kinase ICK (Homo sapiens), sequence (Q9UPZ9 whole entry): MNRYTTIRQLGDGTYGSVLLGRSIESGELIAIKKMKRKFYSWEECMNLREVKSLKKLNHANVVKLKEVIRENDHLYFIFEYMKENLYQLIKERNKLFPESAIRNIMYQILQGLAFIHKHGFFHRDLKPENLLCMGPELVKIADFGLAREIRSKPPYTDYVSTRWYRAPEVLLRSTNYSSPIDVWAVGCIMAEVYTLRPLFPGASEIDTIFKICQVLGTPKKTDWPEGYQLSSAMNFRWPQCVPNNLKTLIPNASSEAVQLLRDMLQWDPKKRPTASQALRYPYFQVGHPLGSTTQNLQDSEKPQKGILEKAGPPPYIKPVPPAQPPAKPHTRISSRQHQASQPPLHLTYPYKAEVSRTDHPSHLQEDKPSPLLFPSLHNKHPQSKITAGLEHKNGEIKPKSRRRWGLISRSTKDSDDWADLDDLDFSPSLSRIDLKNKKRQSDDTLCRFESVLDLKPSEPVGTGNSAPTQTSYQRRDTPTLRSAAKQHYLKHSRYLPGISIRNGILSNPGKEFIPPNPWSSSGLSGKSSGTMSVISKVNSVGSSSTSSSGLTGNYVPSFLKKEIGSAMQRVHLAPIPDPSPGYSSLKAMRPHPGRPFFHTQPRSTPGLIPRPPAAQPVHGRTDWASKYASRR

[17] = target: Serine/threonine-protein kinase MARK2 (Homo sapiens) (UniProt Q7KZI7); test: Inhibition of human MARK2 assessed as residual activity at 1 uM using KKKVSRSGLYRSPSMPENLNRPR as substrate by [gamma-33P]-ATP assay relative to control
[18] = target: Serine/threonine-protein kinase Nek6 (Homo sapiens, UniProt Q9HC98); test: Inhibition of human NEK6 assessed as residual activity at 1 uM using casein as substrate by [gamma-33P]-ATP assay relative to control
Serine/threonine-protein kinase Nek6, sequence (Q9HC98 whole entry): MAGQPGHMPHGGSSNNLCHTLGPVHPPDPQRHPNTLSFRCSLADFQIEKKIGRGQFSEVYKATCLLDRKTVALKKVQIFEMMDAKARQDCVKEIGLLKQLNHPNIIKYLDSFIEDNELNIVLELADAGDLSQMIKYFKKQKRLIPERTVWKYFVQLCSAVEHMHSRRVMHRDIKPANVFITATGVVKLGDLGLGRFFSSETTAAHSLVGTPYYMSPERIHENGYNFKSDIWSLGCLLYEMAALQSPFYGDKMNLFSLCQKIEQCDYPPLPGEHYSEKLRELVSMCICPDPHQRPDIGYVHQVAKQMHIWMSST

[19] = target: Serine/threonine-protein kinase D3 (Homo sapiens) (UniProt O94806); test: Inhibition of human PKCnu assessed as residual activity at 1 uM using KKLNRTLSVA as substrate by [gamma-33P]-ATP assay relative to control
Serine/threonine-protein kinase D3 (Homo sapiens), sequence (O94806 whole entry): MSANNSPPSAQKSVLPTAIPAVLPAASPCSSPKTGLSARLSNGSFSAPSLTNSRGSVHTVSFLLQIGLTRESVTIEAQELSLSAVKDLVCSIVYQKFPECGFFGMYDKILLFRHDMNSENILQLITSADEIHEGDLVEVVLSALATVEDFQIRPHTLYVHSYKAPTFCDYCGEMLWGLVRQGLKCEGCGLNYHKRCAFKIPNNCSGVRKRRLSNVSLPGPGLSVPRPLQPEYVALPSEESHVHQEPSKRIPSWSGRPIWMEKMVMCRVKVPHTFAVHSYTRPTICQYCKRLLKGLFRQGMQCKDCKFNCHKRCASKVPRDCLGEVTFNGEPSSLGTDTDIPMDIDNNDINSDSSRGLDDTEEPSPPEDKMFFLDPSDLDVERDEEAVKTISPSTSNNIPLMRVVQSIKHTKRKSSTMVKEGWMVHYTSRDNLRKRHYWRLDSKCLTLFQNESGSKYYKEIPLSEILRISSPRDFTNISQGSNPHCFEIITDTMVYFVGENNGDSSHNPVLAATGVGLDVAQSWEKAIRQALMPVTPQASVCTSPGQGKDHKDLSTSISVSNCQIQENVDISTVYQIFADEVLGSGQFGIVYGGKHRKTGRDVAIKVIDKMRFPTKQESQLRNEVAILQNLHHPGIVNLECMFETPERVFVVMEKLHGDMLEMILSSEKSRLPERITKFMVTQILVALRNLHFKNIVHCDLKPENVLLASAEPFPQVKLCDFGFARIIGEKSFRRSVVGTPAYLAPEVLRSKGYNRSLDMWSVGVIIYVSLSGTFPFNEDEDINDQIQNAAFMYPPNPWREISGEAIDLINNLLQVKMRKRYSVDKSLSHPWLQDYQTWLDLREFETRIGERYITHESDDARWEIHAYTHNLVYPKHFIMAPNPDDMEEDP

[20] = target: Receptor-interacting serine/threonine-protein kinase 2 (Homo sapiens) (UniProt O43353); test: Inhibition of human RIPK2 assessed as residual activity at 1 uM using MBP as substrate by [gamma-33P]-ATP assay relative to control
[21] = target: Serine/threonine-protein kinase 16 (Homo sapiens) (UniProt O75716); test: Inhibition of human STK16 assessed as residual activity at 1 uM using MBP as substrate by [gamma-33P]-ATP assay relative to control
[22] = target: STE20/SPS1-related proline-alanine-rich protein kinase (Homo sapiens) (UniProt Q9UEW8); test: Inhibition of human STK39 assessed as residual activity at 1 uM using MBP as substrate by [gamma-33P]-ATP assay relative to control
[23] = target: Serine/threonine-protein kinase ULK2 (Homo sapiens) (UniProt Q8IYT8); test: Inhibition of human ULK2 assessed as residual activity at 1 uM using MBP as substrate by [gamma-33P]-ATP assay relative to control

**Q.** Which results are given for `C(=C\c1ccccc1)/C[N+]12CN3CN(CN(C3)C1)C2`?
**A.** inhibition [1]: inactive; Activity [2]: 93.5 to 96.7%; Activity [3]: 92.5 to 93.7%; Activity [4]: 93.2 to 94.5%; Activity [5]: 96.4 to 98.9%; Activity [6]: 93.7 to 94.8%; Activity [7]: 94.5 to 96.3%; Activity [8]: 87.8 to 90.1%; Activity [9]: 79.8 to 81%; Activity [10]: 93.5 to 93.8%

**Q.** Which results are given for `ClC/C=C/C[N+]12CN3CN(CN(C3)C1)C2`?
**A.** Activity [11]: 83.7 to 87.4%; Activity [12]: 93.1 to 94%; Activity [13]: 92.5 to 96%; Activity [14]: 93.1 to 95.5%; Activity [15]: 111 to 113%; Activity [16]: 85.1 to 89.7%; Activity [17]: 94.5%; Activity [18]: 95.3 to 95.6%; Activity [19]: 93.2 to 96.7%; Activity [20]: 95.4 to 96.7%; Activity [21]: 93.1 to 95.2%; Activity [22]: 94.4 to 94.9%; Activity [23]: 93.7 to 95.4%
